From PubChem BioAssay (NCI)
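Cells were grown in 96-well plates and exposed to each compound for 48 hours at five concentrations; endpoints were interpolated linearly between bracketing concentrations, or set to the highest concentration if not reached. GI50 is the concentration that inhibits growth by half. TGI: total growth inhibition.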 *1 amine or outer side, *2 acyl side, *3 side chain or, on linkers, in order; H or OH if unused. Where a SMILES comes first, the peptide text is derived from it. Bridges are numbered along the chain shown (N, C = ends). Roman numbers before positions name the chains, in order. [ ]: non-standard residue; d: D form. Actinocin(9to1) = Cc1c2oc3c(C)ccc(C(=O)[*:1])c3nc-2c(C(=O)[*:2])c(N)c1=O; NMeV = CN[CH](C(=O)O)C(C)C; Sar = CNCC(=O)O

Experiments:
Assay in all cases: inhibition of tumour cell growth, NCI panel, 48 h
SK-MEL-2 melanoma = tested on: SK-MEL-2 melanoma
RPMI-8226 leukemia = tested on: RPMI-8226 leukemia
HOP-62 NSCLC = tested on: HOP-62 NSCLC
KM12 colon = tested on: KM12 colon
OVCAR-8 ovarian = tested on: OVCAR-8 ovarian
SK-MEL-5 melanoma = tested on: SK-MEL-5 melanoma
DMS 273 small cell lung = tested on: DMS 273 small cell lung
SR leukemia = tested on: SR leukemia
UACC-257 melanoma = tested on: UACC-257 melanoma
MCF7 breast = tested on: MCF7 breast

CN(C)CCSC(=Nc1ccccc1)N1CCCCC1
TGI (SK-MEL-2 melanoma): 31.3 µM | TGI (RPMI-8226 leukemia): 87.4 µM | TGI (HOP-62 NSCLC): > 100 µM | TGI (KM12 colon): 31 µM | TGI (OVCAR-8 ovarian): 39.7 µM | TGI (SK-MEL-5 melanoma): 29.8 µM | TGI (DMS 273 small cell lung): 31.1 µM | TGI (SR leukemia): 97.3 µM | TGI (UACC-257 melanoma): 29.6 µM

O=C1Nc2cc([N+](=O)[O-])ccc2NC1/C(=N\Nc1ccccc1)C(O)c1cccc([N+](=O)[O-])c1 (stereo not given)
TGI (SK-MEL-2 melanoma): > 100 µM | TGI (RPMI-8226 leukemia): > 100 µM | TGI (HOP-62 NSCLC): > 100 µM | TGI (KM12 colon): > 100 µM | TGI (OVCAR-8 ovarian): > 100 µM | TGI (SK-MEL-5 melanoma): 45.1 µM | TGI (DMS 273 small cell lung): > 100 µM | TGI (UACC-257 melanoma): > 100 µM

CC(=O)O[C@]12CCCC1C1(O)C(O)CCCC12 (stereo not given in full)
TGI (SK-MEL-2 melanoma): > 100 µM | TGI (RPMI-8226 leukemia): > 100 µM | TGI (HOP-62 NSCLC): > 100 µM | TGI (KM12 colon): > 100 µM | TGI (OVCAR-8 ovarian): > 100 µM | TGI (SK-MEL-5 melanoma): > 100 µM | TGI (DMS 273 small cell lung): > 100 µM | TGI (SR leukemia): > 100 µM | TGI (UACC-257 melanoma): > 100 µM

Cc1cccc(C2=NC(C)(C)C(C)(C)N=C2c2cccc(C)n2)n1
TGI (SK-MEL-2 melanoma): > 100 µM | TGI (RPMI-8226 leukemia): > 100 µM | TGI (HOP-62 NSCLC): > 100 µM | TGI (KM12 colon): > 100 µM | TGI (OVCAR-8 ovarian): > 100 µM | TGI (SK-MEL-5 melanoma): > 100 µM | TGI (DMS 273 small cell lung): > 100 µM | TGI (UACC-257 melanoma): > 100 µM

O=C(OCc1ccccc1)C1(N2CN(C3(C(=O)OCc4ccccc4)CCCC3)CN(C3(C(=O)OCc4ccccc4)CCCC3)C2)CCCC1
TGI (SK-MEL-2 melanoma): > 10 µM | TGI (RPMI-8226 leukemia): > 10 µM | TGI (HOP-62 NSCLC): > 10 µM | TGI (KM12 colon): > 10 µM | TGI (MCF7 breast): > 10 µM | TGI (OVCAR-8 ovarian): > 10 µM | TGI (SK-MEL-5 melanoma): > 10 µM | TGI (SR leukemia): > 10 µM | TGI (UACC-257 melanoma): > 10 µM

CCOC(=O)/C=C(/C(=O)OCC)n1cc(C)c(=O)n(Cc2cn(COCCOC(C)=O)nn2)c1=O
TGI (SK-MEL-2 melanoma): > 100 µM | TGI (RPMI-8226 leukemia): 57.7 µM | TGI (HOP-62 NSCLC): > 100 µM | TGI (KM12 colon): > 62.9 µM | TGI (MCF7 breast): 43.5 µM | TGI (OVCAR-8 ovarian): 32.7 µM | TGI (SK-MEL-5 melanoma): > 59.8 µM | TGI (SR leukemia): > 94.9 µM | TGI (UACC-257 melanoma): 49.9 µM

CCOc1nc(-c2ccccc2)cc(-c2ccc(N3CCOCC3)cc2)c1C#N
TGI (SK-MEL-2 melanoma): > 100 µM | TGI (RPMI-8226 leukemia): > 100 µM | TGI (HOP-62 NSCLC): > 100 µM | TGI (KM12 colon): > 100 µM | TGI (MCF7 breast): > 100 µM | TGI (OVCAR-8 ovarian): > 100 µM | TGI (SK-MEL-5 melanoma): > 100 µM | TGI (SR leukemia): > 100 µM | TGI (UACC-257 melanoma): > 100 µM

O=C1c2c(nc3ccccc3c2-c2ccccc2)CN1Nc1ccccn1
TGI (SK-MEL-2 melanoma): > 100 µM | TGI (RPMI-8226 leukemia): > 100 µM | TGI (HOP-62 NSCLC): > 100 µM | TGI (KM12 colon): > 100 µM | TGI (MCF7 breast): > 100 µM | TGI (OVCAR-8 ovarian): > 87.1 µM | TGI (SK-MEL-5 melanoma): > 100 µM | TGI (DMS 273 small cell lung): > 100 µM | TGI (SR leukemia): > 100 µM | TGI (UACC-257 melanoma): > 100 µM

N#C[S-].[Nd+3].c1ccc(-c2ccccn2)nc1.c1ccc(-c2ccccn2)nc1.c1ccc(-c2ccccn2)nc1
GI50 (SK-MEL-2 melanoma): 8.47 µM | TGI (SK-MEL-2 melanoma): 51.5 µM | GI50 (KM12 colon): 5.62 µM | TGI (KM12 colon): > 100 µM | GI50 (OVCAR-8 ovarian): 4.8 µM | TGI (OVCAR-8 ovarian): > 100 µM | GI50 (SK-MEL-5 melanoma): 1.53 µM | TGI (SK-MEL-5 melanoma): 4.77 µM | GI50 (DMS 273 small cell lung): 3.23 µM | TGI (DMS 273 small cell lung): 19.5 µM | GI50 (SR leukemia): 6.9 µM | TGI (SR leukemia): > 100 µM | GI50 (UACC-257 melanoma): 13.5 µM | TGI (UACC-257 melanoma): 61.2 µM

C#CC(F)(F)[C@]1(O)CC[C@H]2[C@@H]3CCC4=CC(=O)CCC4=C3[C@@H](c3ccc(C(C)=O)cc3)C[C@@]21C
GI50 (SK-MEL-2 melanoma): 13.2 µM | TGI (SK-MEL-2 melanoma): 32.8 µM | GI50 (RPMI-8226 leukemia): 0.333 µM | TGI (RPMI-8226 leukemia): 6.25 µM | GI50 (HOP-62 NSCLC): 18.7 µM | TGI (HOP-62 NSCLC): 73.8 µM | GI50 (KM12 colon): 0.123 µM | TGI (KM12 colon): 52.9 µM | GI50 (MCF7 breast): 2.64 µM | TGI (MCF7 breast): 63 µM | GI50 (OVCAR-8 ovarian): 21.1 µM | TGI (OVCAR-8 ovarian): > 90.6 µM | GI50 (SK-MEL-5 melanoma): 8.47 µM | TGI (SK-MEL-5 melanoma): 21.6 µM | GI50 (SR leukemia): 0.868 µM | TGI (SR leukemia): 37 µM | GI50 (UACC-257 melanoma): 21.1 µM | TGI (UACC-257 melanoma): 88.5 µM

C(=C\c1ccccc1)/C=N/c1nc2cc3sc(/N=C/C=C/c4ccccc4)nc3cc2s1
TGI (SK-MEL-2 melanoma): > 100 µM | TGI (RPMI-8226 leukemia): > 100 µM | TGI (HOP-62 NSCLC): > 100 µM | TGI (KM12 colon): > 100 µM | TGI (MCF7 breast): > 100 µM | TGI (OVCAR-8 ovarian): > 100 µM | TGI (SK-MEL-5 melanoma): > 100 µM | TGI (SR leukemia): 32.4 µM | TGI (UACC-257 melanoma): > 100 µM

O=S1(=O)c2ccccc2C(=NO)c2ccccc21
TGI (SK-MEL-2 melanoma): > 100 µM | TGI (RPMI-8226 leukemia): > 100 µM | TGI (HOP-62 NSCLC): > 100 µM | TGI (KM12 colon): > 100 µM | TGI (MCF7 breast): > 100 µM | TGI (OVCAR-8 ovarian): > 100 µM | TGI (SK-MEL-5 melanoma): > 100 µM | TGI (SR leukemia): > 100 µM | TGI (UACC-257 melanoma): > 100 µM

c1ccc2c(c1)CCc1cc3cc4c(nc3nc1-2)-c1ccccc1CC4
TGI (RPMI-8226 leukemia): > 100 µM | TGI (HOP-62 NSCLC): > 100 µM | TGI (KM12 colon): > 100 µM | TGI (OVCAR-8 ovarian): > 100 µM | TGI (DMS 273 small cell lung): > 100 µM | TGI (SR leukemia): > 100 µM | TGI (UACC-257 melanoma): > 100 µM

CC(C)c1ccc(/C=C2\CSCC3=C2NC(=S)NC3c2ccc(C(C)C)cc2)cc1 (stereo not given)
TGI (SK-MEL-2 melanoma): > 100 µM | TGI (RPMI-8226 leukemia): > 100 µM | TGI (HOP-62 NSCLC): > 100 µM | TGI (KM12 colon): > 100 µM | TGI (MCF7 breast): > 100 µM | TGI (OVCAR-8 ovarian): > 100 µM | TGI (SK-MEL-5 melanoma): 99.5 µM | TGI (SR leukemia): > 100 µM | TGI (UACC-257 melanoma): > 100 µM

CCOC(=O)/C=C(\C(=O)OCC)n1ccc(N)nc1=O
TGI (SK-MEL-2 melanoma): > 100 µM | TGI (RPMI-8226 leukemia): > 100 µM | TGI (HOP-62 NSCLC): > 100 µM | TGI (KM12 colon): > 100 µM | TGI (MCF7 breast): > 100 µM | TGI (OVCAR-8 ovarian): > 100 µM | TGI (SK-MEL-5 melanoma): > 100 µM | TGI (SR leukemia): > 100 µM | TGI (UACC-257 melanoma): > 100 µM

Cc1c2oc3c(C)ccc(C(=O)NC4C(=O)NC(C(C)O)C(=O)N5CCCC5C(=O)N(C)CC(=O)N(C)C(C(C)C)C(=O)OC4C)c3nc-2c(C(=O)NC2C(=O)NC(C(C)O)C(=O)N3CCCC3C(=O)N(C)CC(=O)N(C)C(C(C)C)C(=O)OC2C)c(N)c1=O (stereo not given) (I: TTP[Sar][NMeV] / II: TTP[Sar][NMeV]; ester I:1-I:C, II:1-II:C; linker I:N-II:N via Actinocin(9to1); configuration not given here)
TGI (SK-MEL-2 melanoma): 1.03 µM | TGI (RPMI-8226 leukemia): 1.55 µM | TGI (HOP-62 NSCLC): 10 µM | TGI (KM12 colon): > 30.1 µM | TGI (MCF7 breast): 1.06 µM | TGI (OVCAR-8 ovarian): > 82.4 µM | TGI (SK-MEL-5 melanoma): 1.74 µM | TGI (SR leukemia): 0.047 µM | TGI (UACC-257 melanoma): 3.2 µM
